Laboratory results published in ChEMBL document CHEMBL2311345, “Facile synthesis and characterization of novel pyrazole-sulfonamides and their inhibition effects on human carbonic anhydrase isoenzymes” (Bioorg Med Chem, 2013).

Legend:
Carbonic anhydrase 2 = Carbonic anhydrase 2 (Homo sapiens, UniProt P00918); assay: Un-competitive inhibition of human erythrocytes carbonic anhydrase 2 esterase activity by Lineweaver-Burk plot analysis
Carbonic anhydrase 1 = Carbonic anhydrase 1 (Homo sapiens, UniProt P00915); assay: Un-competitive inhibition of human erythrocytes carbonic anhydrase 1 esterase activity by Lineweaver-Burk plot analysis
Sequence of Carbonic anhydrase 1 (P00915 whole entry): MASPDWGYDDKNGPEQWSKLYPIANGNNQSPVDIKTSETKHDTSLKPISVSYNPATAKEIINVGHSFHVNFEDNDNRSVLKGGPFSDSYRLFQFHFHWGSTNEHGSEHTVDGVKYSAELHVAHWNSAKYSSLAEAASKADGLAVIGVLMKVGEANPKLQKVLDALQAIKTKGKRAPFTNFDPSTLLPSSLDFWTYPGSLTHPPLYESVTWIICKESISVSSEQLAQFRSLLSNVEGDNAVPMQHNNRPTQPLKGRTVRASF

| Compound | Ki (Carbonic anhydrase 2) [nM] | Ki (Carbonic anhydrase 1) [nM] |
| --- | --- | --- |
| NS(=O)(=O)c1ccc(NC(=O)c2nn(-c3cccc(/N=N/c4c(O)ccc5ccccc45)c3)c(-c3ccccc3)c2C(=O)O)cc1 | 12.4 |  |
| CC(=O)/C(=N\Nc1cccc(-n2nc(C(=O)Nc3ccc(S(N)(=O)=O)cc3)c(C(=O)O)c2-c2ccccc2)c1)C(=O)c1ccccc1 |  | 62.3 |
